Experimental data: publication PMC8071193, “Dual-Target Compounds against Type 2 Diabetes Mellitus: Proof of Concept for Sodium Dependent Glucose Transporter (SGLT) and Glycogen Phosphorylase (GP) Inhibitors” (Pharmaceuticals, 2021)
Where two headings read alike, the source gives them in different places.

Key:
[1] = biological target: T1, rabbit muscle glycogen phosphorylase b (rmGPb) (Oryctolagus cuniculus, UniProt P00489); assay: Glycogen phosphorylase b enzyme kinetic inhibition assay (direction of glycogen synthesis); assay type: biochemical
T1 construct: Glycogen phosphorylase b was isolated from rabbit skeletal muscle; from tissue; host or cells: rabbit skeletal muscle
T1 sequence (P00489 1-843): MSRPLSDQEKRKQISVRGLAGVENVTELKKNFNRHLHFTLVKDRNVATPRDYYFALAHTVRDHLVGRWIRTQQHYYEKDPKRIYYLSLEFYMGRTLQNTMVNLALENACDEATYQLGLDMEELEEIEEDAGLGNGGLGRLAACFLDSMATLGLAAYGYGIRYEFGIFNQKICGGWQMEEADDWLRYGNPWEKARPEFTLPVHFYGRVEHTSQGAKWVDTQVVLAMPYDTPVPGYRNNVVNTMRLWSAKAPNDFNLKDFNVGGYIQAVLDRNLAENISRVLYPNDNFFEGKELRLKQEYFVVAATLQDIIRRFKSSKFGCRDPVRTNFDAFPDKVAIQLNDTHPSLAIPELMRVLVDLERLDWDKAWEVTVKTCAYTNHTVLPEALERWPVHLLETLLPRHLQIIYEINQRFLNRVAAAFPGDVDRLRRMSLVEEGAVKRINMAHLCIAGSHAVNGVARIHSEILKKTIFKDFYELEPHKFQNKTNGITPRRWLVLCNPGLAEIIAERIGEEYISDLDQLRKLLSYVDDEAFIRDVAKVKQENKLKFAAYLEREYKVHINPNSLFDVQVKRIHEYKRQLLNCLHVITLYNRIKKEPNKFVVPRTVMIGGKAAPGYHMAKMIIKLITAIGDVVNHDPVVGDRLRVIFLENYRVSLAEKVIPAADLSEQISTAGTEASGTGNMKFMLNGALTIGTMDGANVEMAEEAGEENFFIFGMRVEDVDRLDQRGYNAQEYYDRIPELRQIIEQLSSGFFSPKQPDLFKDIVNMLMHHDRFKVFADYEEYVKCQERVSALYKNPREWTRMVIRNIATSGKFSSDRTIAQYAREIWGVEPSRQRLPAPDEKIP
Text: The 2-NBDG (2-deoxy-2-[(7-nitro-2,1,3-benzoxadiazol-4-yl)amino]-D-glucose, cat. 11046) was purchased from Cayman Chemical Company (Ann Arbor, MI, USA). Lentivirus for SLC5A1 and SLC5A2 (NM_000343 for SGLT1, and NM-003041 for SGLT2) were obtained from Origene (Rockville, MD, USA). These expression vectors contain a puromycin resistance gene. […] CyQUANT^TM Cell Proliferation Assay Kit (2036547) was from Invitrogen (Carlsbad, CA, USA). Glycogen phosphorylase b was isolated from rabbit skeletal muscle according to the method of Fischer and Krebs.
Enzyme activity in the direction of glycogen synthesis was assayed. Kinetic data were collected using the muscle phosphorylase b (dephosphorylated, GPb) isoform. […] Enzymatic activities were presented in the form of a double-reciprocal plot (Lineweaver-Burk). The plots were analysed by a non-linear data analysis program. The inhibitor constants (Ki) were determined by secondary plots, replotting the slopes from the Lineweaver-Burk plot against the inhibitor concentrations. The means of standard errors for all calculated kinetic parameters averaged to less than 10% [78, 79].

[2] = biological target: T2, SGLT1 (Homo sapiens, UniProt P13866); assay: SGLT1 inhibition, 2-NBDG glucose uptake in SGLT1-overexpressing TSA201 cells; assay type: cell-based
T2 construct: host or cells: TSA201 (Human Embryonal Kidney) cells, lentiviral transduction, puromycin selection
T2 sequence (P13866 1-664): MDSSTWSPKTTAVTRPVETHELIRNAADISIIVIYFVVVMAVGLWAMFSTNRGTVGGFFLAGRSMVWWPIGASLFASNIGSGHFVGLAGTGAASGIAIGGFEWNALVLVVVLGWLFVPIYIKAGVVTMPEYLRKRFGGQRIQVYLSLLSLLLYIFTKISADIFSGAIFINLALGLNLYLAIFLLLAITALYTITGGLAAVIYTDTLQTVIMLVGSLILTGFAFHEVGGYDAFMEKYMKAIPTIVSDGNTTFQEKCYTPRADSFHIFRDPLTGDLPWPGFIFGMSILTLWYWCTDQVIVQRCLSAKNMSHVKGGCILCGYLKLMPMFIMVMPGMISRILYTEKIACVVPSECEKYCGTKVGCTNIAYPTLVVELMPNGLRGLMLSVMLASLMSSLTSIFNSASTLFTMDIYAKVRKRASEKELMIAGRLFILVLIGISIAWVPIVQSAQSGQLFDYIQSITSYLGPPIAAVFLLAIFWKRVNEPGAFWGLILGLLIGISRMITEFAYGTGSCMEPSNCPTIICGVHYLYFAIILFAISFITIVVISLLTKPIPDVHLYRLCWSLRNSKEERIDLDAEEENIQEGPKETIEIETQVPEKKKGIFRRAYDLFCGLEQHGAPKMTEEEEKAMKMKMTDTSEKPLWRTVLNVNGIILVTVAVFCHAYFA
Procedure: (§1) Cells (100,000 cells, TSA201) were plated into each well of a 24-well plate and incubated overnight at 37 °C. […] Two wells were treated only with hexadimetrine bromide as a control. After 24 h of transfection, the medium was changed to fresh medium without antibiotics. Cells were collected and transferred into T-25 flasks after 3 days. On the fifth day, 10 µg/mL puromycin was added to select only the transfected cells. The nontransfected cells cannot survive this high concentration of antibiotic. To keep up the selection, the medium including 10 µg/mL puromycin was replaced every two days. The cells lived under puromycin pressure until the day of the experiments.
(§2) TSA201 cells (25,000) with and without overexpressed SGLT1 or 2 were put into poly-L-lysine (P5999, Sigma-Aldrich, St. Luis, MO, USA) treated wells of a 96-well plate. The next day, the cells were starved for 1 h with 90 µL glucose-free medium (D5036-10X1L Sigma-Aldrich, St. Luis, MO, USA) (with or without inhibitor). After starving, cells were treated with 100 µM 2-NBDG and incubated for 30 min (again with or without inhibitor). The incubation time of cells with possible inhibitors was 90 min altogether. After incubation, the medium was removed, the wells were washed with PBS twice, lysed with 100 µL lysis buffer (0.1 M KH2PO4 + 1% Triton-x, pH = 11), and stored at -20°C. […] Subsequently, the protein concentration was measured and NBDG uptake was normalized to protein amount.
(§3) After selecting optimal concentrations, each compound was tested at four different concentrations. […] To determine the specific effects of the compounds on SGLT1 or 2, the glucose uptake values in TSA201 cells without SGLT overexpression were subtracted from the values in TSA201 cell overexpressing SGLT. […] All calculations were prepared using the GraphPad Prism software (GraphPad Software, Inc., SanDiego, CA, USA). The data were plotted on a logarithmic scale as a function of inhibitor concentration. The IC50 values were calculated by non-linear regression analysis from sigmoidal dose-response curves. The results of kinetic experiments were calculated from at least three independent experiments. Each experiment contained four parallel samples that were averaged. The standard deviations were calculated based on the average values for the independent experiments.

[3] = biological target: T3, SGLT2 (Homo sapiens, UniProt P31639); assay: SGLT2 inhibition, 2-NBDG glucose uptake in SGLT2-overexpressing TSA201 cells; assay type: cell-based; details: for SGLT2 inhibition (in words): TSA201 cells, up to 1000 µM; for factor by which the 2-naphthyl derivative is the stronger inhibitor of SGLT2: comparisons 21a–21b and 24a–24b
T3 construct: host or cells: TSA201 (Human Embryonal Kidney) cells, lentiviral transduction, puromycin selection
T3 sequence (P31639 1-672): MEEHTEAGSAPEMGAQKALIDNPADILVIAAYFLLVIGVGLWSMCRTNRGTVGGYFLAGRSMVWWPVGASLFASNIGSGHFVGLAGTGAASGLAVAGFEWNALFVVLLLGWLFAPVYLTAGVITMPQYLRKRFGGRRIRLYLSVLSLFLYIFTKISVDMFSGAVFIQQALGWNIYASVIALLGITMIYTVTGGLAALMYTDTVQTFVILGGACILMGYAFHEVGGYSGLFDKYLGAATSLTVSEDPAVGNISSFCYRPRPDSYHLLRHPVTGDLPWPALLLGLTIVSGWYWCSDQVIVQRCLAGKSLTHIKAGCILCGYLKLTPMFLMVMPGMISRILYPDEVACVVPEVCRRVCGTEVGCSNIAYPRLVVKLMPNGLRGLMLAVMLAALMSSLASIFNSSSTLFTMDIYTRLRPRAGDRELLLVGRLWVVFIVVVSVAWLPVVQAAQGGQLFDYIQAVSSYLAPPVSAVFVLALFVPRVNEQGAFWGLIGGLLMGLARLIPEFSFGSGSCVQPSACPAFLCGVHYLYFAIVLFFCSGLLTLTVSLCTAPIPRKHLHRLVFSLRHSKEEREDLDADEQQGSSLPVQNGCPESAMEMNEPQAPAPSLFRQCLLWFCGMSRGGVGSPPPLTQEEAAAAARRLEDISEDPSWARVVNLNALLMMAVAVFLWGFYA
Procedure: as §1, §2, §3

[4] = Table 2, NI: no inhibition at 625 µM
[5] = Table 2, TSA-201 cells, NI: no inhibition at 1000 µM, compounds 1-2 used as controls for in-house assay
[6] = Table 3, TSA-201 cells, NI: no inhibition at 1000 µM

Row | IC50 [1, 4] [µM] | IC50 [3] [µM] | SGLT2 inhibition (in words) [3] | IC50 [2, 5] [µM] | IC50 [3, 5] [µM] | IC50 [2, 6] [µM] | IC50 [3, 6] [µM] | SMILES | also measured
1 | – | – | – | – | – | 127 ± 21.6 | 10.3 ± 2.18 | OC[C@H]1O[C@@H](n2cc(-c3ccc4ccccc4c3)nn2)[C@H](O)[C@@H](O)[C@@H]1O [21b] | factor by which the 2-naphthyl derivative is the stronger inhibitor of SGLT2 [3]: ~ 7
2 | – | – | – | – | – | 245 ± 42 | 91.04 ± 0.56 | OC[C@H]1O[C@@H](c2nc(-c3ccccc3)c[nH]2)[C@H](O)[C@@H](O)[C@@H]1O [24a] | –
3 | – | – | – | – | – | 125 ± 46.5 | 15 ± 2.74 | OC[C@H]1O[C@@H](c2nnc(-c3ccccc3)[nH]2)[C@H](O)[C@@H](O)[C@@H]1O [25a] | –
4 | – | – | – | – | – | 167 ± 63.5 | 67.3 ± 10.9 | OC[C@H]1O[C@@H](n2cc(-c3ccccc3)nn2)[C@H](O)[C@@H](O)[C@@H]1O [21a] | –
5 | – | – | – | – | – | > 1000 | > 1000 | OC[C@H]1O[C@@H](c2nc(-c3ccc4ccccc4c3)cs2)[C@H](O)[C@@H](O)[C@@H]1O [23b] | –
6 | – | – | – | – | – | > 1000 | > 1000 | OC[C@H]1O[C@@H](c2nc(-c3ccccc3)cs2)[C@H](O)[C@@H](O)[C@@H]1O [23a] | –
7 | – | – | – | – | – | 11.9 ± 2.61 | 3.5 ± 0.88 | OC[C@H]1O[C@@H](c2nc(-c3ccc4ccccc4c3)c[nH]2)[C@H](O)[C@@H](O)[C@@H]1O [24b, 2-(β-D-glucopyranosyl)-4(5)-(2-naphthyl)-imidazole] | factor by which the 2-naphthyl derivative is the stronger inhibitor of SGLT2 [3]: ~ 26

Continued, molecule first:

Row | SMILES | IC50 [1, 4] [µM] | IC50 [3] [µM] | SGLT2 inhibition (in words) [3] | IC50 [2, 5] [µM] | IC50 [3, 5] [µM] | IC50 [2, 6] [µM] | IC50 [3, 6] [µM] | also measured
8 | OC[C@H]1O[C@@H](c2noc(Cc3ccccc3)n2)[C@H](O)[C@@H](O)[C@@H]1O [10a, 5-Benzyl-3-(β-D-glucopyranosyl)-1,2,4-oxadiazole] | > 625 | 3.68 ± 0.59 | showed inhibitory effects | – | – | – | – | IC50 [2]: 20.7 ± 7.66 µM
9 | COc1ccc(Cc2ccnc([C@@H]3O[C@H](CO)[C@@H](O)[C@H](O)[C@H]3O)n2)cc1 [16b, 2-(β-D-Glucopyranosyl)-4-(4-methoxybenzyl)pyrimidine] | > 625 | 11.6 ± 3.19 | inhibitory activity in the micromolar range | > 1000 | – | – | – | –
10 | OC[C@H]1O[C@@H](c2nccc(Cc3ccc(Cl)cc3)n2)[C@H](O)[C@@H](O)[C@@H]1O [16c, 4-(4-Chlorobenzyl)-2-(β-D-glucopyranosyl)pyrimidine] | > 625 | – | inactive | > 1000 | > 1000 | – | – | –
11 | OC[C@H]1O[C@@H](c2nc(-c3ccc4ccccc4c3)n[nH]2)[C@H](O)[C@@H](O)[C@@H]1O [25b] | – | – | – | – | – | 13 ± 2.88 | 17.7 ± 2.32 | –
12 | OC[C@H]1O[C@@H](c2nnc(Cc3ccc(Cl)cc3)o2)[C@H](O)[C@@H](O)[C@@H]1O [13c, 5-(4-Chlorobenzyl)-2-(β-D-glucopyranosyl)-1,3,4-oxadiazole] | > 625 | – | complete loss of the inhibition | > 1000 | > 1000 | – | – | –
13 | COc1ccc(Cc2nc([C@@H]3O[C@H](CO)[C@@H](O)[C@H](O)[C@H]3O)no2)cc1 [10b, 3-(β-D-Glucopyranosyl)-5-(4-methoxybenzyl)-1,2,4-oxadiazole] | > 625 | – | complete loss of the inhibition | > 1000 | > 1000 | – | – | –
14 | OC[C@H]1O[C@@H](c2nc(Cc3ccccc3)n[nH]2)[C@H](O)[C@@H](O)[C@@H]1O [19a] | > 625 | 71.7 ± 10.6 | – | – | – | – | – | IC50 [2]: 19.6 ± 7.26 µM; fold weakening in the SGLT2 inhibition ([3]; 19a vs. 10a and 13a): 20-30 fold
15 | OC[C@H]1O[C@@H](n2cc(Cc3ccccc3)nn2)[C@H](O)[C@@H](O)[C@@H]1O [compound 20] | – | 23.2 ± 1.86 | – | – | – | – | – | IC50 [2]: 101 ± 23.5 µM
16 | OC[C@H]1O[C@@H](c2noc(Cc3ccc(Cl)cc3)n2)[C@H](O)[C@@H](O)[C@@H]1O [10c, 5-(4-Chlorobenzyl)-3-(β-D-glucopyranosyl)-1,2,4-oxadiazole] | > 625 | – | complete loss of the inhibition | > 1000 | > 1000 | – | – | –
17 | OC[C@H]1O[C@@H](c2nc(Cc3ccccc3)n(-c3ccccc3)n2)[C@H](O)[C@@H](O)[C@@H]1O [19c] | > 625 | 2.44 ± 0.85 | – | – | – | – | – | IC50 [2]: 35.5 ± 9.56 µM
18 | OC[C@H]1O[C@@H](c2nccc(Cc3ccc4ccccc4c3)n2)[C@H](O)[C@@H](O)[C@@H]1O [16d, 2-(β-D-Glucopyranosyl)-4-(2-naphthylmethyl)pyrimidine] | > 625 | – | non-inhibitory | > 1000 | > 1000 | – | – | –
19 | COc1ccc(Cc2nnc([C@@H]3O[C@H](CO)[C@@H](O)[C@H](O)[C@H]3O)o2)cc1 [13b, 2-(β-D-Glucopyranosyl)-5-(4-methoxybenzyl)-1,3,4-oxadiazole] | > 625 | – | complete loss of the inhibition | > 1000 | > 1000 | – | – | –
20 | CCOc1ccc(Cc2cc([C@@H]3O[C@H](CO)[C@@H](O)[C@H](O)[C@H]3O)ccc2Cl)cc1 [compound 2, dapagliflozin, reference compound] | – | – | – | – | – | – | – | IC50 [1]: > 625 µM
21 | OCCn1nc([C@@H]2O[C@H](CO)[C@@H](O)[C@H](O)[C@H]2O)nc1Cc1ccccc1 [19b] | > 625 | – | complete loss of the inhibition | > 1000 | > 1000 | – | – | –
22 | OC[C@H]1O[C@@H](c2nccc(Cc3ccccc3)n2)[C@H](O)[C@@H](O)[C@@H]1O [16a, 4-Benzyl-2-(β-D-glucopyranosyl)pyrimidine] | > 625 | 17 ± 3.16 | inhibitory activity in the micromolar range | – | – | – | – | IC50 [2]: 18 ± 3.92 µM
23 | OC[C@H]1O[C@@H](c2nc(Cc3ccccc3)c[nH]2)[C@H](O)[C@@H](O)[C@@H]1O [compound 18, 4(5)-Benzyl-2-(β-D-glucopyranosyl)imidazole] | – | 3.57 ± 0.42 | – | – | – | – | – | inhibition at 625 µM ([1]; Table 2, at 625 µM): 12%; IC50 [2]: 11.7 ± 2.48 µM; times more effective (SGLT2 inhibition) ([3]; compared to 1,2,4-triazole 19a): ~ 20 times
